Test results as given in patent EP1806348A2, “Pyrido (2,3-D)Pyrimidines as inhibitors of cellular proliferation” (Warner-Lambert Company LLC, priority 1997, dated 1998).
Like-named read-outs stand apart in the source and are kept apart here.

Assays:
Format in all cases: biochemical
cdk4/D = cdk4/D (Homo sapiens, UniProt P11802); assay: Cyclin-dependent kinase 4 (cdk4) enzyme assay, 32P incorporation into retinoblastoma; conditions: for inhibition at 40 µM: read-out: cdk4/D % inhibition at 40 µM
Protocol: A typical assay, for instance, measures inhibitory activity against the cyclin D dependent kinase 4 enzyme (cdk4/D). […] The cdk 4 assay was carried out as follows.
(§1) All components except the ATP were added to the wells, and the plate was placed on a plate mixer for 2 minutes. […] The reaction was terminated by addition of 0.1 mL of 20% trichloroacetic acid (TCA). The plate was kept at 4°C for at least 1 hour to allow the substrate to precipitate. The wells were then washed five times with 0.2 mL of 10% TCA and ^32P incorporation was determined with a beta plate counter (Wallac Inc., Gaithersburg, MD).

cdk2/cyclinA = cdk2/cyclinA (Homo sapiens, UniProt P24941); assay: Cyclin-dependent kinase assay (cdk2/cyclinA); conditions: Table 1
Protocol: as §1, with “TCA.” for “trichloroacetic acid (TCA).”, “incorporation” for “incorporation was”

cdc2/cyclinB = cdc2/cyclinB (Homo sapiens, UniProt P06493); assay: Cyclin-dependent kinase assay (cdc2/cyclinB); conditions: Table 1; read-out: cdk1/B IC50
Protocol: as §1, with “TCA.” for “trichloroacetic acid (TCA).”, “incorporation” for “incorporation was”

cdk2/cyclinE = cdk2/cyclinE (Homo sapiens, UniProt P24941); assay: Cyclin-dependent kinase assay (cdk2/cyclinE); conditions: Table 1; read-out: cdk2/E IC50
Protocol: as §1, with “TCA.” for “trichloroacetic acid (TCA).”, “incorporation” for “incorporation was”

[1] = Table 1, 25 µM ATP, retinoblastoma substrate

Chain of cdc2/cyclinB (P06493 whole entry): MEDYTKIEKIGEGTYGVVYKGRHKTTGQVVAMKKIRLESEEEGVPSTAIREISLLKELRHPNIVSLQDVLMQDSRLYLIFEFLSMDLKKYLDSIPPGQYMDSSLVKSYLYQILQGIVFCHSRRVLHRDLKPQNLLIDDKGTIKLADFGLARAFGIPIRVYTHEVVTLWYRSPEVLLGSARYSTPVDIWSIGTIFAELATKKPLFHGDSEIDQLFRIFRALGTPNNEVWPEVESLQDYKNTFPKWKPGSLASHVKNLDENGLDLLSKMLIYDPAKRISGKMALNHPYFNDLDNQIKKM
Chain of cdc2/cyclinB (P14635 whole entry, further chain): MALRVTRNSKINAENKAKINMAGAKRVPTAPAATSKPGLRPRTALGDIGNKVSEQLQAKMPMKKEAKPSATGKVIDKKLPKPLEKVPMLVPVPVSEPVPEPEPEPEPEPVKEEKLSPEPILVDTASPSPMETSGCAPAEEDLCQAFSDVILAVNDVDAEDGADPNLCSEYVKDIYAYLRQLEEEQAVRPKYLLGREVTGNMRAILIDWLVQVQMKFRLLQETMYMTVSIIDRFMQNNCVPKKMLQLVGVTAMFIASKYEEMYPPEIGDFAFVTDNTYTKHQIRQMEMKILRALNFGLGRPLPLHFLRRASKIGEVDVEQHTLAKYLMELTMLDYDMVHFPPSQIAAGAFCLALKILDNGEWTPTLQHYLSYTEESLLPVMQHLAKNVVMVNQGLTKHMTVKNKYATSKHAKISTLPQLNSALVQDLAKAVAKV
Chain of cdk4/D (P11802 whole entry): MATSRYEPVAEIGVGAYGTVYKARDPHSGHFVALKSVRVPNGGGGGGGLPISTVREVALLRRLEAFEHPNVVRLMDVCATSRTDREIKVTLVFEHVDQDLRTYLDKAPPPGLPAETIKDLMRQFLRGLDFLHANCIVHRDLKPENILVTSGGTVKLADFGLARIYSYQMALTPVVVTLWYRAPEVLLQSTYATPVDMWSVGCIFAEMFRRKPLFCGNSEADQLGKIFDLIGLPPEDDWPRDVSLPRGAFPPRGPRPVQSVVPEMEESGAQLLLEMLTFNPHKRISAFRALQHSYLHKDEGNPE
Chain of cdk4/D (P24385 whole entry, further chain): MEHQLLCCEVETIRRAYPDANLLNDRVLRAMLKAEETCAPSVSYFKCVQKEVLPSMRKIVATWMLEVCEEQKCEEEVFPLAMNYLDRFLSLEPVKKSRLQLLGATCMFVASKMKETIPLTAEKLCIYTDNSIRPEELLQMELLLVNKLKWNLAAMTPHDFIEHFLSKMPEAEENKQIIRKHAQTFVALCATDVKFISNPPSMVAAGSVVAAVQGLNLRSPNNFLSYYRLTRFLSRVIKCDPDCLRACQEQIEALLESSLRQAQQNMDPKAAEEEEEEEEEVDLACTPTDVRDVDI

Structure (SMILES) | IC50 (cdk4/D; [1]) | IC50 (cdk2/cyclinA) | IC50 (cdc2/cyclinB) | IC50 (cdk2/cyclinE) | other results
CCn1c(=O)ccc2cnc(Nc3ccc(-c4ccccc4)cc3)nc21 [Example 49, 2-(Biphenyl-4-ylamino)-8-ethyl-8H-pyrido[2,3-d]pyrimidin-7-one] | 2000 nM | – | – | – | –
CCn1c(=O)c(C)cc2cnc(Nc3ccccc3)nc21 [Example 83, 8-Ethyl-6-methyl-2-phenylamino-8H-pyrido[2,3-d]pyrimidin-7-one] | 1800 nM | – | – | – | –
CCn1c(=O)ccc2cnc(NC(C)(C)C)nc21 [Example 46, 2-tert-Butylamino-8-ethyl-8H-pyrido[2,3-d]pyrimidin-7-one] | 5300 nM | – | 3410 nM | – | –
O=c1ccc2cnc(Nc3ccccc3)nc2n1C1CCCCCC1 [Example 155, 8-Cycloheptyl-2-phenylamino-8H-pyrido[2,3-d]pyrimidin-7-one] | 182 nM | 9 nM | 65 nM | 24 nM | –
CCCCNc1ncc2ccc(=O)n(C)c2n1 [Example 64, 2-Butylamino-8-methyl-8H-pyrido[2,3-d]pyrimidin-7-one] | 40000 nM | – | – | – | –
CCNc1nc(Nc2ccccc2)ncc1C(C)=CC(=O)OCC [Example 73, 3-(4-Ethylamino-2-phenylamino-pyrimidin-5-yl)-but-2-enoic acid ethyl ester] | – | – | – | – | inhibition at 40 µM (cdk4/D; at 40 µM, Table 2): 58%
COc1ccc(Cn2c(=O)ccc3cnc(Nc4ccccc4)nc32)cc1 [Example 58, 8-(4-Methoxybenzyl)-2-phenylamino-8H-pyrido[2,3-d]pyrimidin-7-one] | 10000 nM | – | – | – | –
CCn1c(=O)ccc2cnc(NC3CCCCC3)nc21 [Example 48, 2-Cyclohexylamino-8-ethyl-8H-pyrido[2,3-d]pyrimidin-7-one] | 3300 nM | 230 nM | 2610 nM | 592 nM | –
O=c1ccc2cnc(Nc3ccccc3)nc2[nH]1 [Example 32, 2-Phenylamino-8H-pyrido[2,3-d]pyrimidin-7-one] | – | 4660 nM | 32600 nM | 12800 nM | –
COCn1c(=O)ccc2cnc(Nc3ccccc3)nc21 [Example 37, 8-Methoxymethyl-2-phenylamino-8H-pyrido[2,3-d]pyrimidin-7-one] | 4200 nM | – | – | – | –
CCNc1nc(Nc2ccccc2)ncc1CCC(=O)OCC [Example 68, 3-(4-Ethylamino-2-phenylamino-pyrimidin-5-yl)propionic acid ethyl ester] | – | – | – | – | IC50 (cdk4/D; Table 2, Formula II compounds): 90000 nM; inhibition at 40 µM (cdk4/D; at 40 µM, Table 2): 37%
CCn1c(=O)ccc2cnc(NCc3ccccc3)nc21 [Example 44, 2-Benzylamino-8-ethyl-8H-pyrido[2,3-d]pyrimidin-7-one] | – | 6460 nM | 16700 nM | – | –
CCn1c(=O)ccc2cnc(Nc3ccc(N4CCN(C)CC4)cc3)nc21 [Example 53, 8-Ethyl-2-[4-(4-methylpiperazin-1-yl)-phenylamino]-8H-pyrido[2,3-d]pyrimidin-7-one] | 85 nM | 339 nM | 1880 nM | 1190 nM | –
CCNc1ncc2ccc(=O)n(CC)c2n1 [Example 45, 8-Ethyl-2-ethylamino-8H-pyrido[2,3-d]pyrimidin-7-one] | 12000 nM | 2460 nM | 9230 nM | 3930 nM | –
CCn1c(=O)ccc2cnc(Nc3ccc(OCCOC)cc3)nc21 [Example 57, 8-Ethyl-2-[4-(2-methoxyethoxy)phenylamino]-8H-pyrido[2,3-d]pyrimidin-7-one] | 800 nM | – | – | – | –
CCn1c(=O)ccc2cnc(NC(C)C)nc21 [Example 47, 8-Ethyl-2-isopropylamino-8H-pyrido[2,3-d]pyrimidin-7-one] | 3700 nM | – | 3550 nM | – | –
CCn1c(=O)ccc2cnc(Nc3ccc(O)cc3)nc21 [Example 55, 8-Ethyl-2-(4-hydroxyphenylamino)-8H-pyrido[2,3-d]pyrimidin-7-one] | 600 nM | – | – | – | –
CCn1c(=O)ccc2cnc(Nc3cccc(F)c3OC)nc21 [Example 91, 8-Ethyl-2-(3-fluoro-2-methoxyphenylamino)-8H-pyrido[2,3-d]pyrimidin-7-one] | 9000 nM | – | – | – | –
CCNc1nc(Nc2ccccc2)ncc1C=CC#N [Example 72, 3-(4-Ethylamino-2-phenylamino-pyrimidin-5-yl)acrylonitrile] | – | – | – | – | inhibition at 40 µM (cdk4/D): 18%
CC(C)n1c(=O)ccc2cnc(Nc3ccccc3)nc21 [Example 43, 8-Isopropyl-2-phenylamino-8H-pyrido[2,3-d]pyrimidin-7-one] | 150 nM | 31 nM | 440 nM | 126 nM | –
Cn1c(=O)ccc2cnc(NCCc3ccccn3)nc21 [Example 66, 8-Methyl-2-(2-pyridin-2-yl-ethylamino)-8H-pyrido[2,3-d]pyrimidin-7-one] | 45000 nM | – | – | – | –
O=c1ccc2cnc(Nc3ccccc3)nc2n1CCCOc1ccccc1 [Example 87, 8-(3-Phenoxypropyl)-2-phenylamino-8H-pyrido[2,3-d]pyrimidin-7-one] | – | – | 1080 nM | – | –
CCn1c(=O)ccc2cnc(Nc3ccc(OC)cc3)nc21 [Example 51, 8-Ethyl-2-(4-methoxyphenylamino)-8H-pyrido[2,3-d]pyrimidin-7-one] | 600 nM | 134 nM | 665 nM | 422 nM | –
CCn1c(=O)ccc2cnc(Nc3cccc(F)c3)nc21 [Example 89, 8-Ethyl-2-(3-fluorophenylamino)-8H-pyrido[2,3-d]pyrimidin-7-one] | 1400 nM | – | – | – | –
CCn1c(=O)ccc2cnc(Nc3ccc(F)cc3)nc21 [Example 88, 8-Ethyl-2-(4-fluorophenylamino)-8H-pyrido[2,3-d]pyrimidin-7-one] | 1300 nM | 440 nM | 2070 nM | 280 nM | –
CCN(CC)c1ccc(Nc2ncc3ccc(=O)n(CC)c3n2)cc1 [Example 78, 2-(4-Diethylamino-phenylamino)-8-ethyl-8H-pyrido[2,3-d]pyrimidin-7-one] | 1300 nM | 2240 nM | 740 nM | 2940 nM | –
CC(C)Nc1ncc2ccc(=O)n(C)c2n1 [Example 67, 2-Isopropylamino-8-methyl-8H-pyrido[2,3-d]pyrimidin-7-one] | 25000 nM | – | – | – | –

Continued, in another order:

IC50 (cdk4/D; [1]) | IC50 (cdk2/cyclinA) | IC50 (cdc2/cyclinB) | IC50 (cdk2/cyclinE) | Structure (SMILES) | other results
– | 38100 nM | 21600 nM | – | Cn1c(=O)ccc2cnc(NCc3ccccc3)nc21 [Example 63, 2-Benzylamino-8-methyl-8H-pyrido[2,3-d]pyrimidin-7-one] | –
6900 nM | 490 nM | 1760 nM | 860 nM | Cn1c(=O)ccc2cnc(Nc3ccccc3)nc21 [Example 61, 8-Methyl-2-phenylamino-8H-pyrido[2,3-d]pyrimidin-7-one] | –
380 nM | 280 nM | 780 nM | 1770 nM | CCn1c(=O)ccc2cnc(Nc3ccc(N(C)C)cc3)nc21 [Example 93, 2-(4-Dimethylamino-phenylamino)-8-ethyl-8H-pyrido[2,3-d]pyrimidin-7-one] | –
141 nM | – | – | – | CCC(CC)n1c(=O)ccc2cnc(Nc3ccccc3)nc21 [Example 74, 8-(1-Ethylpropyl)-2-phenylamino-8H-pyrido[2,3-d]pyrimidin-7-one] | –
25000 nM | – | – | – | CCn1c(=O)ccc2cnc(Nc3ccc(OCc4ccccc4)cc3)nc21 [Example 56, 2-Benzyloxyphenylamino-8-ethyl-8H-pyrido[2,3-d]pyrimidin-7-one] | –
5000 nM | – | – | – | O=c1ccc2cnc(Nc3ccccc3)nc2n1CC1CO1 (stereo not drawn) [Example 39, 8-Oxiranylmethyl-2-phenylamino-8H-pyrido[2,3-d]pyrimidin-7-one] | –
200 nM | – | – | – | CCC(C)n1c(=O)ccc2cnc(Nc3ccccc3)nc21 (stereo not drawn) [Example 85, 8-sec-Butyl-2-phenylamino-8H-pyrido[2,3-d]pyrimidin-7-one] | –
1000 nM | – | – | – | CCn1c(=O)ccc2cnc(Nc3ccc(OC)c(F)c3)nc21 [Example 90, 8-Ethyl-2-(3-fluoro-4-methoxyphenylamino)-8H-pyrido[2,3-d]pyrimidin-7-one] | –
14 nM | 28 nM | 141 nM | 68 nM | CCC(CC)n1c(=O)ccc2cnc(Nc3ccc(N4CCN(C)CC4)cc3)nc21 [Example 77, 8-(1-Ethylpropyl)-2-[4-(4-methylpiperazin-1-yl)-phenylamino]-8H-pyrido[2,3-d]pyrimidin-7-one] | –
300 nM | – | – | – | CCn1c(=O)ccc2cnc(Nc3ccc(N4CCOCC4)cc3)nc21 [Example 79, 8-Ethyl-2-(4-morpholin-4-yl-phenylamino)-8H-pyrido[2,3-d]pyrimidin-7-one] | –
7830 nM | 238 nM | 91 nM | 1200 nM | CCn1c(=O)ccc2cnc(Nc3cccc(OC(F)(F)C(F)F)c3)nc21 [Example 54, 8-Ethyl-2-[3-(1,1,2,2-tetrafluoroethoxy)-phenylamino]-8H-pyrido[2,3-d]pyrimidin-7-one] | –
19000 nM | – | – | – | CCNc1ncc2ccc(=O)n(-c3ccccc3)c2n1 [Example 100, 2-Ethylamino-8-phenyl-8H-pyrido[2,3-d]pyrimidin-7-one] | –
2400 nM | – | – | – | COCCn1c(=O)ccc2cnc(Nc3ccccc3)nc21 [Example 86, 8-(2-Methoxyethyl)-2-phenylamino-8H-pyrido[2,3-d]pyrimidin-7-one] | –
4300 nM | – | – | – | CCN1C(=O)CCc2cnc(Nc3ccccc3)nc21 [Example 69, 8-Ethyl-2-phenylamino-5,8-dihydro-6H-pyrido[2,3-d]pyrimidin-7-one] | –
